From publication PMC12621201, “Exploiting the 2‑(1,3,4,9-tetrahydropyrano[3,4‑b]indol-1-yl)acetic Acid Scaffold to Generate COXTRANs: A New Class of Dual Cyclooxygenase Inhibitors-Thromboxane Receptor Antagonists” (Journal of Medicinal Chemistry, 2025)

Experiments:
PK studies in mice = format: in vivo; conditions: male CD1 mice (n = 3), oral gavage, cassette dose 10 mg/kg each
Protocol: A total number of 3 adult male RjOrl:Swiss (CD-1) mice were housed in a temperature-controlled room (20–24 °C) and maintained in a 12 h light/12 h dark cycle. Food and water were provided ad libitum. All experimental procedures were approved by and conducted in accordance with the regulations of the local Animal Welfare authorities (Landesamt für Gesundheit and Verbraucherschutz, Abteilung Lebensmittel- and Veterinärwesen, Saarbrücken). At each time point a volume of 100–150 μL Li-heparin whole blood, i.e. 40–50 μL Li-heparin plasma, was collected from the retrobulbar venous plexus under short isoflurane anesthesia. The plasma samples were prepared within 45 min after collection, frozen at −20 °C and stored at this temperature until processed for LC–MS analysis. The PK studies were performed by the CRO Pharmacelsus GmbH under the protocol number 2021UFM002.

[1] = tested on: CFA-induced inflammatory pain; assay: CFA-induced inflammatory pain (dynamic plantar aesthesiometer); conditions: mice, 50 mg/kg oral gavage 24 h after CFA
Protocol: Experiments were performed in 6–12 week-old male and female C57BL/6N mice (Charles River, Sulzfeld, Germany). […] The studies were performed by an observer blinded for treatment of the animals.
Mechanical sensitivity of a hindpaw was assessed using a dynamic plantar aesthesiometer (Ugo Basile, Comerio, VA, Italy). […] The paw withdrawal latency was recorded automatically and calculated as the average of 6–8 measurements. […] Immediately thereafter, drugs or vehicle were administered by oral gavage and the mechanical sensitivity was determined over 2 h.

[2] = CD-1 (RjOrl:Swiss), mouse, plasma

AUC(0-inf) (PK studies in mice; [2]): 59300 ng·h/mL
CL/F (PK studies in mice; [2]): 2.82 mL/min/kg
half-life (PK studies in mice; [2]): 11.6 h
AUC(0-t) (PK studies in mice; CD-1 (RjOrl:Swiss), mouse, plasma, read-out: AUC0–24): 45600 ng·h/mL
Vd/F (PK studies in mice; CD-1 (RjOrl:Swiss), mouse, plasma, read-out: V z/f): 2.82 L/kg
C 24h ± CV % (PK studies in mice): 819 ± 76.7%
C max ± CV % (PK studies in mice): 3170 ± 58.6%
Structure (SMILES): CCC1(CC(=O)O)OCCc2c1[nH]c1c(Cc3ccccc3)cc(F)cc21 (stereo not drawn) [Compound 51, 2-(8-Benzyl-1-ethyl-6-fluoro-1,3,4,9-tetrahydropyrano[3,4-b]indol-1-yl)acetic Acid]
paw withdrawal latency compared to 24 h post-CFA ([1]; 1 h after administration): significantly increased
paw withdrawal latency compared to 24 h post-CFA ([1]; 2 h after administration): significantly increased
